Counter-ions that a name gives are not always drawn.
What was measured:
Format in all cases: in vivo
Alopecurus = assay: Pre-emergence test/greenhouse; details: greenhouse, after three weeks
Procedure: (§1) Pre-emergence Test/greenhouse Solvent: 5 parts by weight of acetone Emulsifier: 1 part by weight of alkylaryl polyglycol ether To produce a suitable preparation of active compound, 1 part by weight of active compound is mixed with the stated amount of solvent, the stated amount of emulsifier is added and the concentrate is diluted with water to the desired concentration. Seeds of the test plants are sown in normal soil. After about 24 hours, the soil is sprayed with the preparation of active compound such that the particular amount of active compound desired is applied per unit area. The concentration of the spray liquor is chosen so that the particular amount of active compound desired is applied in 500 litres of water per hectare. After three weeks, the degree of damage to the plants is tested in % damage in comparison to the development of the untreated control. The figures denote: 0% no effect (like untreated control) 100%=total destruction

Agropyron = assay: Pre-emergence test/greenhouse; details: 15 g ai./ha, greenhouse, after three weeks
Procedure: as §1

Setaria = assay: Pre-emergence test/greenhouse; details: 30 g ai./ha, greenhouse, after three weeks
Procedure: as §1

Lolium = assay: Pre-emergence test/greenhouse; details: 30 g ai./ha, greenhouse, after three weeks
Procedure: as §1

Sinapis = assay: Pre-emergence test/greenhouse; details: 15 g ai./ha, greenhouse, after three weeks
Procedure: as §1

Avena = assay: Pre-emergence test/greenhouse; details: greenhouse, after three weeks
Procedure: as §1

Bromus = assay: Pre-emergence test/greenhouse; details: greenhouse, after three weeks
Procedure: as §1

Wheat [1] = assay: Pre-emergence test/greenhouse; details: greenhouse; for degree of damage to the plants (% damage in comparison to the untreated control): Wheat, after three weeks
Procedure: as §1

Poa = assay: Pre-emergence test/greenhouse; details: 15 g ai./ha, greenhouse, after three weeks
Procedure: as §1

Amaranthus = assay: Pre-emergence test/greenhouse; details: 15 g ai./ha, greenhouse, after three weeks
Procedure: as §1

Wheat [2] = assay: Post-emergence test/outdoors (Example E, California), crop compatibility; details: 42 g a.i./ha to 45 g a.i./ha, + SAS, outdoors, 7 tests
winter wheat = assay: Post emergence tests/outdoors (Example C, Germany and France), crop compatibility; details: 42 g of a.i./ha to 45 g of a.i./ha, post-emergence (spring), outdoors, 1 to 8 weeks after the treatment, 439 tests
Procedure: (§2) Post Emergence Tests/outdoors Under outdoor conditions, the sodium salt of the compound of the formula (I) was tested in winter wheat in Germany and France against economically important weeds. The small-plot experiments were carried out on cultivated land under agricultural use, with cultivation and climate conditions which can be considered to be representative for the period of the trial. Areas with particularly extensive weed growth were chosen by way of preference. The active compound was applied by the post-emergence method (spring) across the area by the spray method, with an average droplet size. To produce a useful preparation of active compound, the active compound was formulated as 70 WP or 70 WG (70% w/w water-dispersible powder or granules) and applied with customary amounts of water. To assess the crop compatibility, from 1 to 8 weeks after the treatment, plant growth inhibitions or […] of the leaf area were assessed in % damage in comparison to the development of the untreated control. At different intervals after the treatment, the herbicidal activity was assessed as % reduction in comparison to the untreated control, based on the weed development. The figures denote: 0%=no damage of the crops or no herbicidal effect, 100%=total destruction of the crops or the weeds.

Bromus secalinus = assay: Post-emergence tests/outdoors (Example D, USA); details: 42 g a.i./ha to 45 g a.i./ha, post-emergence (autumn), outdoors, winter wheat, with surface-active substances (SAS), 24 tests
Procedure: (§3) The active compound was applied by the post-emergence method (spring) across the area by the spray method, with an average droplet size. To produce a useful preparation of active compound, the active compound was formulated as 70 WP or 70 WG (70% w/w water-dispersible powder or granules) and applied with customary amounts of water. To assess the crop compatibility, from 1 to 8 weeks after the treatment, plant growth inhibitions or […] of the leaf area were assessed in % damage in comparison to the development of the untreated control. At different intervals after the treatment, the herbicidal activity was assessed as % reduction in comparison to the untreated control, based on the weed development. The figures denote: 0%=no damage of the crops or no herbicidal effect, 100%=total destruction of the crops or the weeds. Post-emergence Tests/outdoors The sodium salt of the compound of the formula (I) was tested under outdoor conditions in the main cultivation areas of winter wheat in the USA (Pacific Northwest, North Central Area, Central Plains) against economically important weeds. The design, the practice and the evaluation of the experiments corresponded to Example C. The active compound was applied in autumn. Wetting of the plants was improved by addition of commercial surface-active substances (SAS) in the concentrations recommended by the respective manufacturer.

Thlaspi arvense = assay: Post-emergence tests/outdoors (Example D, USA); details: 42 g a.i./ha to 45 g a.i./ha, post-emergence (autumn), outdoors, winter wheat, with surface-active substances (SAS), 7 tests
Procedure: as §3

Agropyron repens = assay: Post emergence tests/outdoors (Example C, Germany and France); details: 42 g of a.i./ha to 45 g of a.i./ha, post-emergence (spring), outdoors, winter wheat, 70 WP or 70 WG, 83 tests
Procedure: as §2

Sinapis arvensis = assay: as above; details: 42 g of a.i./ha to 45 g of a.i./ha, post-emergence (spring), outdoors, winter wheat, 70 WP or 70 WG, 4 tests
Procedure: as §2

Apera spica-venti = assay: as above; details: 42 g of a.i./ha to 45 g of a.i./ha, post-emergence (spring), outdoors, winter wheat, 70 WP or 70 WG, 87 tests
Procedure: as §2

Poa annua = assay: as above; details: 42 g of a.i./ha to 45 g of a.i./ha, post-emergence (spring), outdoors, winter wheat, 70 WP or 70 WG, 5 tests
Procedure: as §2

Alopecurus myosuroides = assay: as above; details: 42 g of a.i./ha to 45 g of a.i./ha, post-emergence (spring), outdoors, winter wheat, 70 WP or 70 WG, 204 tests
Procedure: as §2

Capsella bursa-pastoris = assay: as above; details: 42 g of a.i./ha to 45 g of a.i./ha, post-emergence (spring), outdoors, winter wheat, 70 WP or 70 WG, 6 tests
Procedure: as §2

## CCCOc1nn(C(=O)NS(=O)(=O)c2ccccc2C(=O)OC)c(=O)n1C [(I)-Na-salt, 2-(2-methoxycarbonyl-phenylsulphonylaminocarbonyl)-4-methyl-5-propoxy-2,4-dihydro-3H-1,2,4-triazol-3-one]
Alopecurus; 15 g ai./ha
  degree of damage to the plants (% damage in comparison to the untreated control): 95%
Alopecurus; 30 g ai./ha
  degree of damage to the plants (% damage in comparison to the untreated control): 95%
Agropyron
  degree of damage to the plants (% damage in comparison to the untreated control): 90%
Setaria
  degree of damage to the plants (% damage in comparison to the untreated control): 90%
Lolium
  degree of damage to the plants (% damage in comparison to the untreated control): 80%
Sinapis
  degree of damage to the plants (% damage in comparison to the untreated control): 90%
Avena; 15 g ai./ha
  degree of damage to the plants (% damage in comparison to the untreated control): 80%
Avena; 30 g ai./ha
  degree of damage to the plants (% damage in comparison to the untreated control): 90%
Bromus; 15 g ai./ha
  degree of damage to the plants (% damage in comparison to the untreated control): 90%
Bromus; 30 g ai./ha
  degree of damage to the plants (% damage in comparison to the untreated control): 90%
Wheat [1]; 15 g ai./ha
  degree of damage to the plants (% damage in comparison to the untreated control): 0%
Wheat [1]; 30 g ai./ha
  degree of damage to the plants (% damage in comparison to the untreated control): 0%
Wheat [1]; sodium salt of (I) at 15 g/ha to 60 g/ha
  compatibility with crop plants (wheat), in words: very good compatibility
Poa
  degree of damage to the plants (% damage in comparison to the untreated control): 90%
Amaranthus
  degree of damage to the plants (% damage in comparison to the untreated control): 95%
Wheat [2]
  Damage to the crop (wheat): 5%
Winter wheat
  Damage to the crop (wheat): 2%
Bromus secalinus
  herbicidal effect (%): 95%
Thlaspi arvense
  herbicidal effect (%): 100%
Agropyron repens
  herbicidal effect (%): 89%
Sinapis arvensis
  herbicidal effect (%): 100%
Apera spica-venti
  herbicidal effect (%): 94%
Poa annua
  herbicidal effect (%): 67%
Alopecurus myosuroides
  herbicidal effect (%): 91%
Capsella bursa-pastoris
  herbicidal effect (%): 100%

— US6395684B1, “Selective herbicides based on a substituted phenyl sulfonyl amino carbonyl triazolinone” (Bayer Aktiengesellschaft, priority 1998, dated 2002)
